Patent US6593307B1, “Cyclic-ADP-ribose analogs” (Regents of the University of Minnesota, priority 1999, dated 2003)
“Also recorded” adds a separate entry of the source. Read-outs that look alike come from different tables or passages of the source. Blank lines part the entries; values can stand above or below the compound they belong to.

Tests used:
CB MNC [1] = assay: Cytosine arabinoside-susceptibility of CB MNC CFC; format: cell-based, human
From the text: Thereafter, cells were washed, counted and plated in semisolid medium for assay of CFC at a concentration of 10^4 MNC/plate.

CD38 [2] = assay: Stability to hydrolysis by CD38, read out by Ca2+ release
[3] = test system: cord blood (CB) mononuclear cells (MNC)
Description: (§2) After liquid culture, an appropriate number of MNC or CD34^+-enriched cells was plated in methylcellulose medium supplemented with a mixture of hemopoietic growth factors (Methocult; Stem Cell Technologies, Vancouver, BC, Canada). After 14 days of incubation in a humidified, 5% CO2 atmosphere at 37° C., colonies were scored using an inverted microscope, applying standard criteria for their identification.

CD38 [4] = conditions: 1 μg/ml CD38 at 37° C.
Live L. pictus eggs = assay: Microinjection into live sea urchin eggs (Ca2+ mobilization, cortical reaction)
From the text: Live L. pictus eggs were preloaded with the calcium indicator, fluo 3, by microinjection.

[5] = test system: sea urchin egg homogenates; assay: Ca2+ release assay in sea urchin egg homogenates; format: biochemical, Strongylocentrotus purpuratus; conditions: for EC50: S. purpuratus egg homogenates, read-out: half-maximal concentration for Ca2+ release (EC50)
Description: The dilutions and all experiments were conducted at 17° C. Free Ca^2+ concentrations were measured by monitoring the fluorescence (490 nm excitation, 535 nm emission) of the indicator using a Perkin Elmer Model 650 spectrofluometer. […] For some experiments a BMG FluoStar 96 well fluorescence plate reader was used. In this case, samples to be tested were added to wells of a 96 well plate in 1.5 μl aliquots. Calcium release was initiated by adding 150 μl of homogenate to each well with a multichannel pipette. Six to eight wells were measured simultaneously. Samples to be tested were diluted in IM buffer containing 10 μM EGTA.

[6] = Stability to heat (boiling water bath), read out by Ca2+ release
From the text: Aliquots were then cooled on ice and the ability of the sample to release Ca^2+ determined. Data is average±sd for a representative experiment performed in triplicate.

CB MNC [7] = assay: Fluorimetric determination of [Ca2+]i in CB MNC (FURA 2); format: cell-based, human
Description: Measurements were performed at room temperature in a 2 ml-cuvette under continuous stirring. […] Chem., 273, 8017-8024. The frequency of recording was 1 point/s. All measurements were performed in Ca^2+-free external solutions.

[8] = test system: specific microsomal binding site for cADPR; conditions: cited from earlier work
[9] = general statement, not tested here; cited from earlier work
L. pictus = conditions: cited from earlier work
CD34+-enriched MNC = assay: CFC growth from CD34+-enriched fractions; format: cell-based, human; conditions: 100 μM, 24 hours, n=6
Description: Immunoaffinity purification of CD34^+ cells was used to enrich MNC in colony forming cells (CFC) and early progenitors (Krause, D. […] CD34^+ cell enrichment was performed by positive selection using the miniMACS immunomagnetic separation system (Miltenyi Biotec GmBH, Germany). Briefly, PB- or CB-derived MNC were suspended in phosphate-buffered saline (PBS) containing 0.5% bovine serum albumin and 5 mM EDTA and CD34^+ cells were separated using anti-CD34 antibody (clone: QBEND/10; isotype: mouse IgG1) and colloidal superparamagnetic beads. After labeling, the cell suspension was passed through a column held within a magnetic field causing CD34^+ cells to be retained in the column. Purified CD34^+ cells were then collected following removal of the column from the magnet and washing with buffer.

[10] = test system: bone marrow (BM)-derived clonogenic progenitors; assay: CFC output of bone marrow-derived clonogenic progenitors; format: cell-based, human; conditions: 100 μM, 24 hours, n=3
From the text: (§1) Normal bone marrow (BM) cells were obtained from donors providing marrow for allogeneic transplantation. Leukapheresis samples were obtained from normal donors providing peripheral blood (PB) progenitor cells for allogeneic transplant after a short course of granulocyte colony-stimulating factor. All donors gave informed consent. Mononuclear cells (MNC) from CB, BM and PB were separated by density gradient centrifugation on Ficoll-Hypaque (Sigma). After separation, cells were washed twice in Iscove's Modified Dulbecco's Medium (IMDM) containing 5% fetal calf serum (FCS) and resuspended in IMDM containing 10% FCS, penicillin 100 U/ml, streptomycin 100 μg/ml and glutamine 2 mM (complete medium).

[11] = test system: cord blood (CB) mononuclear cells (MNC); assay: Colony size (cells per colony) from CB MNC; format: cell-based, human; conditions: 100 μM, 24 hours priming
Description: as §2

[12] = test system: peripheral blood (PB)-derived clonogenic progenitors; assay: CFC output of peripheral blood-derived clonogenic progenitors; format: cell-based, human; conditions: 100 μM, 24 hours, n=2
From the text: as §1

[13] = 100 nM in pipette, about 0.7 nM in the egg
[14] = 1 μM in pipette, about 10 nM in the egg
[15] = 10 μM in pipette, ~130 nM in the egg

Compound: Nc1ccn([C@@H]2O[C@H](CO)[C@@H](O)[C@@H]2O)c(=O)n1 [c-ARA, Cytosine arabinoside]
effect on the growth-stimulating effect of cADPR (CB MNC [1]; 1 μM c-ARA, 24 hours): complete inhibition | effect on increased replating efficiency produced by cADPR priming (CB MNC [1]; 1 μM c-ARA, 24 hours pretreatment): did not affect | median colony number (CB MNC [1]; c-ARA pretreated (1 μM, 24 hours), incubated without cADPR, n=8): 21 per 10^4 plated MNC

Compound: N=c1c2ncn3c2ccn1C1OC(COP(=O)(O)OP(=O)(O)OCC2OC3C(O)C2O)C(O)C1O (stereo not shown) [3-deaza-cADPR, cyclic 3-deaza-adenosine diphosphoribose]
resistance to enzymatic hydrolysis (CD38 [2]): resistant | median CFC output ([3]; 1 nM, n=5, control 1,150): 2,050 CFC/ml | median CFC output ([3]; 1 μM, n=5, control 1,150): 2,200 CFC/ml | CFC output compared to untreated cells ([3]; 1, 10, 100 and 1,000 nM, each concentration): significant increase | effect of 1 nM as share of the effect induced by 1 μM ([3]; CFC output): 95% | hydrolysis by CD38 (CD38 [4]): did not hydrolyze | Ca2+ transient (Live L. pictus eggs; [13]): small | injected eggs with partial cortical reaction (Live L. pictus eggs; [13]): 1 out of 6 | full cortical reactions out of the 7 eggs injected (Live L. pictus eggs; [14]): 4 | partial cortical reaction out of the 7 eggs injected (Live L. pictus eggs; [14]): 1 | Ca2+ transient (Live L. pictus eggs; [15]): large | eggs with full cortical reaction (Live L. pictus eggs; [15]): 5 out of 5 | lag before Ca2+ release at low concentrations [5]: an appreciable lag is seen | desensitization of homogenate to subsequent challenge by the other agonist ([5]; 1 μM cADPR, 500 nM 3-deaza-cADPR): renders the system unresponsive | EC50 [5]: 1 ± 0.4 nM | final concentration able/needed to elicit Ca2+ release ([5]; control traces, FIG. 3): 0.3 nM | resistance to heat hydrolysis [6]: resistant | fraction inactivated upon boiling ([6]; boiling for up to two hours, 350 nM): about 15% | [Ca2+]i after 24 hours (CB MNC [7]; 10 nM 3-deaza-cADPR, n=7, basal 20.3±1.8): 96.4 ± 5.0 nM | calcium response of intact cells over 30 min (CB MNC [7]; 100 μM cADPR or 10 nM 3-deaza-cADPR, zero-calcium external solution): same rate and extent | calcium levels following removal of the nucleotide (CB MNC [7]; at least 48 hours after removal): remained unchanged | [Ca2+]i(t=0), fitted parameter (CB MNC [7]; single exponential fit, 10 nM): 21.1 ± 0.6 nM | Δmax[Ca2+]i, fitted maximal calcium change (CB MNC [7]; single exponential fit, 10 nM): 74.0 ± 0.7 nM | τ, time constant of [Ca2+]i increase (CB MNC [7]; single exponential fit, 10 nM): 6.5 h

Compound: inositol trisphosphate
competition for the cADPR binding site relative to cADPR [8]: at least a thousand times less effectively than cADPR

EC50 [5]: ~25 nM
Compound: N=c1c2ccn3c2ncn1C1OC(COP(=O)(O)OP(=O)(O)OCC2OC3C(O)C2O)C(O)C1O (stereo not shown) [7-deaza-cADPR]
resistance of the N1-glycosidic linkage to hydrolysis [9]: resistant to hydrolysis | agonist character [5]: partial agonist | Ca2+ release relative to that induced by cADPR or 3-deaza-cADPR ([5]; maximal response, FIG. 4): about 70% | relative potency of cADPR and 7-deaza-cADPR (L. pictus): cADPR is more potent than 7-deaza-cADPR

Compound: N=c1c2nc(N)n3c2ncn1[C@@H]1O[C@H](COP(=O)(O)OP(=O)(O)OC[C@H]2O[C@@H]3[C@H](O)[C@@H]2O)[C@@H](O)[C@H]1O [8-NH2-cADPR]
mean CFC output ([3]; 10 μM 8-NH2-cADPR plus 10-fold excess cADPR (100 μM), 24 hours, control 2,800): 1,200 CFC/ml | mean CFC output ([3]; 10 μM 8-NH2-cADPR plus 100-fold excess cADPR (1 mM), 24 hours, control 2,600): 2,500 CFC/ml | effect on colony growth ([3]; 10 μM, 24 hours pre-treatment): completely inhibited colony growth | median CFC output ([3]; 10 μM, 24 hours, n=3, untreated 3,400): zero | colony growth after further 24 hours with cADPR (100 μM) ([3]; after 10 μM 8-NH2-cADPR pre-treatment): did not restore colony growth | effect on 3-deaza-cADPR-induced Ca2+ release ([5]; 2.7 nM 3-deaza-cADPR, 60 and 300 nM 8-amino-cADPR): blocks; also recorded: can also inhibit | amount of Ca2+ releasable by calcium ionophore A23187 vs untreated (CB MNC [7]; 10 μM, 24 hours): consistent increase | basal [Ca2+]i after incubation (CB MNC [7]; 10 μM, 24 hours, n=3, from 20±2): 14 ± 1 nM | effect on calcium increase induced by cADPR (CB MNC [7]; 100 μM, 2 hours pre-incubation): completely inhibited | [Ca2+]i following exposure to cADPR (CB MNC [7]; 2 hours pre-incubation with 100 μM 8-NH2-cADPR, then 100 μM cADPR for 4 hours, n=2): 20 nM

Compound: Nc1ncnc2c1ncn2[C@@H]1O[C@H](COP(=O)(O)OP(=O)(O)OC[C@H]2OC(O)[C@H](O)[C@@H]2O)[C@@H](O)[C@H]1O (stereo partly shown) [ADPR, ADP-ribose]
Median CFC number per ml ([3]; 100 μM, 24 hours, CB MNC): 2,141 CFC/ml | Range of CFC number per ml ([3]; 100 μM, 24 hours, CB MNC): 600-13,120 CFC/ml | effect on CFC growth compared to untreated cells ([3]; any of the concentrations tested (1-1,000 μM)): No effect | median CFC growth from CD34+-enriched fractions (CD34+-enriched MNC): 18,000 CFC/10^6 MNC | range of CFC growth from CD34+-enriched fractions (CD34+-enriched MNC): 360-70,000 CFC/10^6 MNC | median CFC output, BM-derived [10]: 1,500 CFC/ml | Median number of cells per colony [11]: 11,560 | Range of number of cells per colony [11]: 6,200-19,000 | median CFC output, PB-derived [12]: 1,460 CFC/ml
